Columns and labels:
NPR-34 = test: Aequorin-based calcium mobilization assay; type: cell-based, C. elegans; details: CHO/mtAEQ/Gα16 cells expressing NPR-34; aequorin luminescence; n ≥ 6
SEB-2 = SEB-2 (Caenorhabditis elegans, UniProt P30650); type: cell-based, C. elegans; details: n ≥ 6
Sequence of SEB-2 (P30650 whole entry, looked up): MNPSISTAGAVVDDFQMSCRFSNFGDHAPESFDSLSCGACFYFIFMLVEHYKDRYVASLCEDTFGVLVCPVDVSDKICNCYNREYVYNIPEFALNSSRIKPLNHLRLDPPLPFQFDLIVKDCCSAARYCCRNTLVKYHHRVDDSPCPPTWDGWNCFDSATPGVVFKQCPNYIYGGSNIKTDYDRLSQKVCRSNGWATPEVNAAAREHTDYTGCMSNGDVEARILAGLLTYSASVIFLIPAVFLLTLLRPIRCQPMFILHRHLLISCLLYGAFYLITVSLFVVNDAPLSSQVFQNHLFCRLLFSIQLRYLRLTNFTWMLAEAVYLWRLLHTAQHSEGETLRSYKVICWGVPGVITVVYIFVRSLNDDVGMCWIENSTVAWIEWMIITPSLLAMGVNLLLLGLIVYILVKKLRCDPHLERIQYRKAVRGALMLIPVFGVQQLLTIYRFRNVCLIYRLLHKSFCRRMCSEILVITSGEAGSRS

## LDCRKFSFAPACRGIML; C3–C12 (disulfide) [SNET-1]
NPR-34
  receptor activation (calcium response): activate

## NRQCLLNAGLSQGCDFSDLLHAQTQARKFMSFAGPamide; C4–C14 (disulfide) [NLP-73]
SEB-2
  receptor activation (calcium response): activate

— publication PMC7615250 (Cell reports, 2023)
